The values below are quoted from earlier work in patent US12350296B2, “Liquid propolis extract, its formulation and use thereof” (Apiotix Technologies D.O.O., priority 2019, dated 2025).

Structures are written as SMILES. Read-outs that look alike come from different tables or passages of the source.

The subject of the series is subclinical mastitis. Conditions: for healing (cure) of cases: subclinical mastitis caused by S. uberis.

As to `CO/N=C(\C(=O)N[C@@H]1C(=O)N2C(C(=O)O)=C(CSC(=O)c3ccco3)CS[C@H]12)c1csc(N)n1` [ceftiofur], the bacteriological cure by setting is: (daily i.mam. application during 8 days) 66%; (i.mam. application, after 5 days) 54%.
`CC[C@@H]1CCN[C@H](C(=O)N[C@@H]([C@H]2O[C@H](SC)[C@H](O)[C@@H](O)[C@H]2O)[C@H](C)Cl)C1` [pirlimycin]: the “healing (cure) of cases” value reads like this: (therapy for 5 days) 68.8%; (therapy for 8 days) 80%; (two-day therapy) 58.1%.
